Laboratory results published in patent publication US11827628B2, “Compositions and methods for inhibition of the JAK pathway” (Rigel Pharmaceuticals, Inc., priority 2005, dated 2023).
Counter-ions that a name gives are not always drawn.

Key:
[1] = test system: Primary human T-cells; test: Primary Human T-Cell Proliferation Assay Stimulated with IL-2 (CellTiter-Glo); assay type: cell-based; conditions: Homo sapiens, T-cell, primary human T-cells stimulated with IL-2, proliferation; read-out: IC50, Example 42
How it was run: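 Peripheral blood T-cells pre-activated with anti-CD3/anti-CD28 and IL-2 were washed free of IL-2, then cultured with compound plus IL-2 for 72 hours at 37° C, duplicate wells. Viability read as ATP by CellTiter-Glo luminescence; IC50 reported.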

[2] = test system: up-regulation of ICAM-1 (CD54) by IFNγ in A549 lung epithelial cells; test: A549 Epithelial Line Stimulated with IFNγ (ICAM-1 surface expression, FACS); assay type: cell-based, human; conditions: Homo sapiens, A549, A549 cells stimulated with IFNγ, ICAM-1 expression by FACS; read-out: IC50, Example 43
How it was run: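 A549 cells pre-incubated 1 h with compound (30 μM to 14 nM, 5% FBS, 0.3% DMSO), then stimulated with IFNγ (75 ng/mL) for 24 h. Surface ICAM-1 stained with APC anti-CD54 and read by flow cytometry; geometric mean of live-gated events plotted against concentration for EC50.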

Row | IC50 [2] [µM] | SMILES | IC50 [1] [µM]
1 | 6.42 | COc1ccc(Nc2nc(Nc3cc(C)c(Cl)c(S(N)(=O)=O)c3)ncc2F)cc1Cl [VI-17, N2-(3-Aminosulfonyl-4-chloro-5-methylphenyl)-N4-(3-chloro-4-methoxyphenyl)-5-fluoro-2,4-pyrimidinediamine] | 0.244
2 | 5.76 | NS(=O)(=O)c1cccc(Nc2ncc(F)c(Nc3ccc(CCCCO)cc3)n2)c1 [VI-89, N2-(3-Aminosulfonylphenyl)-5-fluoro-N4-[4-(4-hydroxybutyl)phenyl]-2,4-pyrimidinediamine] | 0.171
3 | 5.47 | Cc1ccc2cc(Nc3nc(Nc4ccc(C)c(S(N)(=O)=O)c4)ncc3F)ccc2n1 [VII-71, N2-(3-Aminosulfonyl-4-methylphenyl)-5-fluoro-N4-(2-methylquinolin-6-yl)-2,4-pyrimidinediamine] | 0.569
4 | 4.58 | Cc1ccc(Nc2ncc(F)c(Nc3ccc(CCCF)cc3)n2)cc1S(N)(=O)=O [VI-84, N2-(3-Aminosulfonyl-4-methylphenyl)-5-fluoro-N4-[4-(3-fluoropropyl)phenyl]-2,4-pyrimidinediamine] | 0.514
5 | 13 | NS(=O)(=O)c1cccc(Nc2ncc(F)c(Nc3ccc(CCCCF)cc3)n2)c1 [VI-92, N2-(3-Aminosulfonylphenyl)-5-fluoro-N4-[4-(4-fluorobutyl)phenyl]-2,4-pyrimidinediamine] | 0.107
6 | 7.5 | Cc1ccc(Nc2ncc(F)c(Nc3ccc4ncccc4c3)n2)cc1S(N)(=O)=O [VII-69, N2-(3-Aminosulfonyl-4-methylphenyl)-5-fluoro-N4-(quinolin-6-yl)-2,4-pyrimidinediamine] | 0.696
7 | 3.06 | CN1C(=O)CSc2ccc(Nc3nc(Nc4cccc(S(N)(=O)=O)c4)ncc3F)cc21 [VII-49, N2-(3-Aminosulfonylphenyl)-5-fluoro-N4-(4-methyl-3-oxo-benz[1,4]thiazin-6-yl)-2,4-pyrimidinediamine] | 0.0549
8 | 24.7 | NS(=O)(=O)c1ccc(Nc2ncc(F)c(Nc3ccc(CCCCO)cc3)n2)cc1 [VI-88, N2-(4-Aminosulfonylphenyl)-5-fluoro-N4-[4-(4-hydroxybutyl)phenyl]-2,4-pyrimidinediamine] | 1.19
9 | 8.1 | COc1ccc(Nc2nc(Nc3ccc(N4CCN(C)CC4)c(S(N)(=O)=O)c3)ncc2F)cc1Cl [VI-116, N2-[3-Aminosulfonyl-4-(4-methylpiperazine-1-yl)phenyl]-N4-(3-chloro-4-methoxyphenyl)-5-fluoro-2,4-pyrimidinediamine] | 0.174
10 | 16.1 | NS(=O)(=O)c1cccc(Nc2ncc(F)c(Nc3ccc(-c4cnco4)cc3)n2)c1 [IV-5, N2-(3-Aminosulfonylphenyl)-5-fluoro-N4-[4-(1,3-oxazol-5-yl)phenyl]-2,4-pyrimidinediamine] | 0.116
11 | 10.7 | Cc1ccc(Nc2ncc(F)c(Nc3ccc4sccc4c3)n2)cc1S(N)(=O)=O [VII-57, N2-(3-Aminosulfonyl-4-methylphenyl)-N4-(benzothiophen-5-yl)-5-fluoro-2,4-pyrimidinediamine] | 0.818
12 | 5 | N#CCN1C(=O)COc2ccc(Nc3nc(Nc4cccc(S(N)(=O)=O)c4)ncc3F)cc21 [Compound V-7, N2-(3-Aminosulphonylphenyl)-5-fluoro-N4-(3-oxo-4-cyanomethyl-benz[1,4]oxazin-6-yl]-2,4-pyrimidinediamine] | 0.127
13 | 3.38 | Cc1ccc(Nc2ncc(F)c(Nc3ccc4[nH]cc(CC#N)c4c3)n2)cc1S(N)(=O)=O [IX-14, N2-(3-Aminosulfonyl-4-methylphenyl)-N4-(3-cyanomethyl-1H-indol-5-yl)-5-fluoro-2,4-pyrimidinediamine] | 0.656
14 | 15 | Cc1ccc(Nc2ncc(F)c(Nc3ccc(Cl)c(Cl)c3)n2)cc1S(N)(=O)=O [VI-6, N2-(3-Aminosulfonyl-4-methylphenyl)-N4-(3,4-dichlorophenyl)-5-fluoro-2,4-pyrimidinediamine] | 1.45
15 | 23.4 | COc1ccc(Nc2nc(Nc3cccc(S(N)(=O)=O)c3)ncc2F)cn1 [VII-6, N2-(3-Aminosulfonylphenyl)-5-fluoro-N4-(2-methoxypyrid-5-yl)-2,4-pyrimidinediamine] | 2
16 | 28.1 | NS(=O)(=O)c1cccc(Nc2ncc(F)c(Nc3ccc(Cc4ccncc4)cc3)n2)c1 [III-128, N2-(3-Aminosulfonylphenyl)-5-fluoro-N4-[4-(4-pyridylmethyl)phenyl]-2,4-pyrimidinediamine p-Toluenesulfonic Acid Salt] | 0.139
17 | 5.46 | Cc1ccc(Nc2ncc(F)c(Nc3ccc4oc(C#N)cc4c3)n2)cc1S(N)(=O)=O [VII-53, N2-(3-Aminosulfonyl-4-methylphenyl)-N4-(2-cyanobenzofuran-5-yl)-5-fluoro-2,4-pyrimidinediamine] | 0.484
18 | 1.7 | COc1ccc(Nc2nc(Nc3cccc(S(N)(=O)=O)c3)ncc2Br)cc1Cl [VI-26, N2-(3-aminosulfonylphenyl)-5-bromo-N4-(3-chloro-4-methoxyphenyl)-2,4-pyrimidinediamine] | 0.0289
19 | 8.23 | COc1ccc(Nc2nc(Nc3cc(Cl)c(C)c(S(N)(=O)=O)c3)ncc2F)cc1Cl [VI-13, N2-(3-Aminosulfonyl-5-chloro-4-methylphenyl)-N4-(3-chloro-4-methoxyphenyl)-5-fluoro-2,4-pyrimidinediamine] | 1.35
20 | 17.1 | COc1ccc(Nc2nc(Nc3ccc(C)c(S(N)(=O)=O)c3)ncc2F)nc1N [VII-9, N2-(3-Aminosulfonyl-4-methylphenyl)-N4-[2-amino-3-methoxypyrid-6-yl]-5-fluoro-2,4-pyrimidinediamine] | 2.72
21 | 4.13 | C#CCNc1ccc(Nc2nc(Nc3ccc(C)c(S(N)(=O)=O)c3)ncc2F)cc1 [VI-65, N2-(3-Aminosulfonyl-4-methylphenyl)-5-fluoro-N4-[4-(prop-2-ynylamino)phenyl]-2,4-pyrimidinediamine] | 0.209
22 | 30.3 | N#CCc1c[nH]c2ccc(Nc3nc(Nc4cccc(S(N)(=O)=O)c4)ncc3F)cc12 [IX-13, N2-(3-Aminosulfonylphenyl)-N4-(3-cyanomethyl-1H-indol-5-yl)-5-fluoro-2,4-pyrimidinediamine] | 0.43
23 | 5.92 | Cc1ccc(Nc2ncc(F)c(Nc3ccc(CO)cc3)n2)cc1S(N)(=O)=O [VI-52, N2-(3-Aminosulfonyl-4-methylphenyl)-5-fluoro-N4-(4-hydroxymethylphenyl)-2,4-pyrimidinediamine] | 0.162
24 | 4.98 | C#CCOc1ccc(Nc2nc(Nc3ccc(C)c(S(N)(=O)=O)c3)ncc2F)cc1Cl [VI-59, N2-(3-Aminosulfonyl-4-methylphenyl)-N4-[3-chloro-4-(prop-2-ynyloxy)phenyl]-5-fluoro-2,4-pyrimidinediamine] | 0.34
25 | 9.12 | Cc1ccc(Nc2ncc(F)c(Nc3ccc4c(c3)NC(=O)CS4)n2)cc1S(N)(=O)=O [VII-44, N2-(3-Aminosulphonyl-4-methyl-phenyl)-5-fluoro-N4-(3-oxo-4H-benzo[1,4]thiazin-6-yl)-2,4-pyrimidinediamine] | 0.546
26 | 9.18 | NS(=O)(=O)c1cc(Nc2ncc(F)c(Nc3ccc(O)cc3)n2)ccc1F [VI-100, N2-(3-Aminosulfonyl-4-fluorophenyl)-5-fluoro-N4-(4-hydroxyphenyl)-2,4-pyrimidinediamine] | 0.0743
27 | 3.11 | CC#CCOc1ccc(Nc2nc(Nc3ccc(C)c(S(N)(=O)=O)c3)ncc2F)cc1 [VI-61, N2-(3-Aminosulfonyl-4-methylphenyl)-N4-[4-(but-2-ynyloxy)phenyl]-5-fluoro-2,4-pyrimidinediamine] | 0.185
